Assay results reported in PMC3530535, “Crystal Structure of Proteus mirabilis Lipase, a Novel Lipase from the Proteus/Psychrophilic Subfamily of Lipase Family I.1” (PLoS ONE, 2012).

Target: T1, Proteus mirabilis lipase (PML) (Proteus mirabilis, UniProt B4EVM3)
T1 construct: gene PMI0999; N-terminal hexahistidine tag (pET28a, plasmid pTK05), expressed in E. coli BL21Gold(DE3), Ni-NTA purified, tag removal not described
Experiment: X-ray crystal structure, […] A
Type: binding
Conditions: covalent; diethyl adduct on Ser79 O-gamma; treated with 2 mM paraoxon, 0.6% Triton X100, 18 h, 25 °C, pH 7.5

T1 sequence (B4EVM3 entry or part of it): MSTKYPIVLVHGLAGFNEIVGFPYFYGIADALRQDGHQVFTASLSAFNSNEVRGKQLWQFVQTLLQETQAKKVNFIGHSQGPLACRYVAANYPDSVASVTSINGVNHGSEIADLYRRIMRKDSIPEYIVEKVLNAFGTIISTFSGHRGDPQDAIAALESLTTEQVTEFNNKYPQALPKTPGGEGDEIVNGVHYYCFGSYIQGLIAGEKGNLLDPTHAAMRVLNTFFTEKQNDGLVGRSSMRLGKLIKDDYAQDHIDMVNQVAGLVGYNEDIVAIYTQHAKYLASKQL

## CCOP(=O)(OCC)Oc1ccc([N+](=O)[O-])cc1 [DEP, paraoxon]
  X-ray crystal structure, 2.2 A: the small phosphonate inhibitor is covalently bound to the Oγ of S79
